Source: patent US5484940A, “Substituted 3-indolyl-5-pyrazolone compounds” (priority 1994, dated 1996)

Legend:
rat cortical neurons = assay: Inhibition of toxicity of β-amyloid peptide to rat neuronal cells (alamarBlue); assay type: cell-based; settings: 10 to 20 μM β-amyloid peptide, 2-3 days; on average where more than one duplicate experiment; compound concentration not stated
Procedure: (§1) The purpose of this test is to determine the effect of 3-indolyl-5-pyrazolone compounds on the toxicity of β-amyloid peptide to neuronal cells.
Primary rat cortical cultures were established from 18 day rat fetuses. Cortical tissue was dissociated by incubation in a trypsin/EDTA solution (0.05% trypsin+0.53 mM EDTA in HBSS; GIBCO Laboratories, Grand Island, N.Y., USA) for 20 minutes at 37° C. The trypsin was then inactivated by resuspending the cells in serum-containing medium (DMEM/FBS): Dulbecco's Modified Eagles' Medium (DMEM) containing 4.5 g/L glucose, 1 mM sodium pyruvate, 1 mM glutamine, 100 Units/mL penicillin, 100 μg/mL streptomycin, and supplemented with 10% heat-inactivated fetal bovine serum (GIBCO Laboratories, Grand Island, N.Y., USA). Cells were then pelleted by centrifugation and resuspended in a chemically-defined medium (DMEM/B27: DMEM containing B27 supplement; GIBCO Laboratories, Grand Island, N.Y., USA) in place of FBS. Polyethyleneimine (PEI; Sigma Chemical Company, St. Louis, Mo., USA)-coated 6.4 mm (96-well) dishes were timed once with DMEM/FBS, and then seeded at 0.75 to 1.25×10^5 cells per well in 0.1 mL DMEM/B27. Cultures were maintained in a H2 O-saturated incubator with an atmosphere of 90% air/10% CO2 at 37° C. Cell viability was visually assessed by phase contrast microscopy and quantified by measuring the reduction of alamarBlue™ (Alamar biosciences, Inc., Sacramento, Calif., USA) as described below. Serum replacement with B27 supplement yields nearly pure neuronal cultures as judged by immunocytochemistry for glial fibrillary acidic protein and neuron-specific enolase (Brewer, et al.^20)
(§2) β-amyloid peptide stock solutions were prepared as 1 mM stocks in sterile, doubly distilled water immediately prior to addition to cultures. Rat cortical neurons were exposed to β-amyloid peptide by removing the culture medium and replacing it with DMEM/N2 (GIBCO Laboratories,Grand Island, N.Y., USA) containing 10 to 20 μM β-amyloid peptide. Human cortical neurons were exposed to test compound plus β-amyloid peptide by removing the culture medium and replacing it with MEM containing 50 μM β-amyloid peptide. Cultures were maintained for 2-3 days before neuronal survival was quantified using alamarBlue™.
(§3) The alamarBlue™ assay incorporates a fluorometric/colorimetric metabolic indicator (Alamar Biosciences, Inc. Sacramento, Calif., USA). Viable cells convert alamarBlue™ from an oxidized (non-fluorescent, blue) form to a reduced (fluorescent, red) form. Assays were preformed by replacing the culture media with a 10% alamarBlue™ solution in DMEM (rat cortical cultures) or MEM (human cortical cultures).

human cortical neurons = assay: Inhibition of toxicity of β-amyloid peptide to human neuronal cells (alamarBlue); assay type: cell-based; settings: 50 μM β-amyloid peptide, 2-3 days; on average where more than one duplicate experiment; compound concentration not stated
Procedure: as §1
Primary Human Cortical Cell Culture
Primary human cortical cultures were prepared using a modification of the procedure described by Seubert, et al.^21 Following filtration through Nitex nylon screens, cortical tissue was resuspended in a trypsin/EDTA solution (0.05% trypsin+0.53 mM EDTA in HBSS; GIBCO Laboratories, Grand Island, N.Y., USA) and kept at 37° C. for 20 minutes. The trypsin was then inactivated by resuspending the cells in serum-containing medium (MEM/FBS: Modified Eagles' Medium (MEM) containing 1% glucose, 1 mM sodium pyruvate, 1 mM glutamine, and supplemented with 10% fetal bovine serum (GIBCO). Cells were then pelleted by centrifugation and resuspended in a chemically-defined medium (MEM/B27: MEM containing B27 supplement in place of FBS; GIBCO). Polyethyleneimine (PEI; Sigma Chemical Company, St. Louis, Mo., USA)-coated 6.4 mm (96-well) dishes were rinsed once with MEM/FBS, and then seeded at 0.75 to 1.25×10^5 cells per well in 0.1 mL MEM/B27. Cultures were maintained in a H2 O-saturated incubator with an atmosphere of 95% air/5% CO 2 at 37° C. The culture medium was exchanged twice weekly. Cell viability was visually assessed by phase contrast microscopy and quantified by measuring the reduction of alamarBlue™ (Alamar Biosciences, Inc., Sacramento, Calif., USA).
as §2, §3

[1] = system: β-amyloid peptide production; assay: Cellular screen for inhibitors of β-amyloid production (ELISA, 293 751 SWE cells); assay type: cell-based, human; settings: 2 h pretreatment + 2 h, normalized for cytotoxicity (MTT), concentration not given
Procedure: (§4) This screening assay employed cells (K293=human kidney cell line) which were stably transfected with the gene for amyloid precursor protein 751 (APP751) containing the double mutation Lys651 Met652 to Asn651 Leu652 (APP751 numbering) in the manner described in International Patent Application Publication No. 94/10569^1 and Citron et al.^16. This mutation is commonly called the Swedish mutation and the cells, designated as "293 751 SWE", were plated in Coming 96-well plates at 1.5-2.5×10^4 cells per well in Dulbecco's minimal essential media plus 10% fetal bovine serum. Cell number is important in order to achieve β-amyloid ELISA results within the linear range of the assay (~0.2 to 2.5 ng per mL).
Following overnight incubation at 37° C. in an incubator equilibrated with 10% carbon dioxide, media were removed and replaced with 200 μL of a substituted 3-indolyl-5-pyrazolone (drug) containing media per well for a two hour pretreatment period and cells were incubated as above.
At the end of the pretreatment period, the media were again removed and replaced with fresh drag containing media as above and cells were incubated for an additional two hours. After treatment, plates were centrifuged in a Beckman GPR at 1200 rpm for five minutes at room temperature to pellet cellular debris from the conditioned media. From each well, 100 μL of conditioned media or appropriate dilutions thereof were transferred into an ELISA plate precoated with antibody 266 against amino acids 13-28 of β-amyloid peptide as described in International Patent Application Publication No. 94/10569^1 and stored at 4° C. overnight. An ELISA assay employing labelled antibody 6C6 against amino acids 1-16 of β-amyloid peptide was run the next day to measure the amount of β-amyloid peptide produced.
The results of the β-amyloid peptide ELISA were fit to a standard curve and expressed as ng/mL β-amyloid peptide. […] All results are the mean and standard deviation of at least six replicate assays.

293 751 SWE cells = assay: Cytotoxicity (MTT) in 293 751 SWE cells; assay type: cell-based, human; settings: concentration not given
Procedure: as §4
Cytotoxic effects of the compounds were measured by a modification of the method of Hansen, et al.^17. To the cells remaining in the tissue culture plate was added 25 μL of a 3,(4,5-dimethylthiazol-2-yl)2,5-diphenyltetrazolium bromide (MTT) stock solution (5 mg/mL) to a final concentration of 1 mg/mL. Cells were incubated at 37° C. for one hour, and cellular activity was stopped by the addition of an equal volume of MTT lysis buffer (20% w/v sodium dodecylsulfate in 50% dimethylformamide, pH 4.7). Complete extraction was achieved by overnight shaking at room temperature. The difference in the OD562nm and the OD650nm was measured in a Molecular Device's UVmax microplate reader as an indicator of the cellular viability.

Ultraviolet absorption = assay type: physicochemical; settings: 0.1 mg/mL in methanol, 1 cm quartz cuvette
Procedure: The ultraviolet (UV) absorption properties of two representative substituted 3-indolyl-5-pyrazolones were evaluated and compared to indomethacin [1-(4-chlorobenzoyl)-5-methoxy-2-methyl-^1 H-indole-3-acetic acid], a compound known to absorb UV light (See page 4855 of the Merck Index, 10th Edition, Windholz, et al. Editor (1983)). Specifically, 0.1 mg/mL of 3-indolyl-5-pyrazolone (Ex. 9 or 33) or indomethacin in methanol was added to a quartz cuvette (1 cm) and the UV absorption of this solution was then measured at a wavelength of from 200 nm to 800 nm (Examples 9 and 33) and from 190 nm to 800 nm.

| Compound | inhibition of the toxicity of β-amyloid peptide to rat neuronal cells (rat cortical neurons) | inhibition of the toxicity of β-amyloid peptide to human neuronal cells (human cortical neurons) | reduction of β-amyloid peptide production as compared to control [1] | cytotoxic effect on the 293 751 SWE cells (293 751 SWE cells) | Abs (at λmax) (Ultraviolet absorption) | E = Extinction coefficient (Ultraviolet absorption) [AU/mg/mL/cm] | λmax (Ultraviolet absorption) [nm] | λother (shoulder) (Ultraviolet absorption) [nm] |
| --- | --- | --- | --- | --- | --- | --- | --- | --- |
| COc1cccc(N2N=C(Cc3c(C)n(C(=O)c4ccc(Cl)cc4)c4ccc(OC)cc34)CC2=O)c1 [Example 24, 3-[1-(4-chlorobenzoyl)-5-methoxy-2-methyl-3-indolylmethyl]-1-(3-methoxyphenyl)-5-pyrazolone] | at least 10% | at least 25% | at least 20% | did not have a significant cytotoxic effect | – | – | – | – |
| COc1ccc2c(c1)c(CC1=NN(c3cccc(Cl)c3)C(=O)C1)c(C)n2C(=O)c1ccc(Cl)cc1 [Example 26, 3-[1-(4-chlorobenzoyl)-5-methoxy-2-methyl-3-indolylmethyl]-1-(3-chlorophenyl)-5-pyrazolone] | at least 10% | at least 25% | at least 20% | did not have a significant cytotoxic effect | – | – | – | – |
| COc1ccc2c(c1)c(CC1=NN(c3cc(Cl)cc(Cl)c3)C(=O)C1)c(C)n2C(=O)c1ccc(Cl)cc1 [Example 27, 3-[1-(4-chlorobenzoyl)-5-methoxy-2-methyl-3-indolylmethyl]-1-(3,5-dichlorophenyl)-5-pyrazolone] | at least 10% | at least 25% | at least 20% | did not have a significant cytotoxic effect | – | – | – | – |
| COc1ccc2c(c1)c(CC1=NN(c3cccc([N+](=O)[O-])c3)C(=O)C1)c(C)n2C(=O)c1ccc(Cl)cc1 [Example 30, 3-[1-(4-chlorobenzoyl)-5-methoxy-2-methyl-3-indolylmethyl]-1-(3-nitrophenyl)-5-pyrazolone] | < 10% | at least 25% | at least 20% | did not have a significant cytotoxic effect | – | – | – | – |
| COc1ccc2c(c1)c(CC1=NN(c3ccc(Cl)c(Cl)c3)C(=O)C1)c(C)n2C(=O)c1ccc(Cl)cc1 [Example 33, 3-[1-(4-chlorobenzoyl)-5-methoxy-2-methyl-3-indolylmethyl]-1-(3,4-dichlorophenyl)-5-pyrazolone] | at least 10% | at least 25% | at least 20% | did not have a significant cytotoxic effect | 2.3458 | 23.46 | 254 | 318 |
| COc1ccc2c(c1)c(CC1=NN(c3ccc(C)cc3)C(=O)C1)c(C)n2C(=O)c1ccc(Cl)cc1 [Example 34, 3-[1-(4-chlorobenzoyl)-5-methoxy-2-methyl-3-indolylmethyl]-1-(4-methylphenyl)-5-pyrazolone] | at least 10% | at least 25% | at least 20% | did not have a significant cytotoxic effect | – | – | – | – |
| COc1ccc2c(c1)c(CC(=O)O)c(C)n2C(=O)c1ccc(Cl)cc1 [indomethacin, 1-(4-chlorobenzoyl)-5-methoxy-2-methyl-^1 H-indole-3-acetic acid, reference compound] | – | – | – | – | 2.3996 | 23.99 | 246 | 318 |
